The results in this text go back to PMC8318231, “Rate-of-Kill (RoK) assays to triage large compound sets for Chagas disease drug discovery: Application to GSK Chagas Box” (PLoS Neglected Tropical Diseases, 2021).

The assay relates to T. cruzi intracellular amastigotes in H9c2 cells. Put plainly: Rate-of-Kill (RoK) high-content imaging assay, amastigotes per cell (AM/CELL) and curve descriptors. It is filed as cell-based, Trypanosoma cruzi. The arrangement: key to ME_24h / ME_48h / ME_72h: % reduction in parasite burden (cidal response); t50pct_MCC50 / t50pct_Cmax: unit not given here. The conditions noted are these: for ME_24h: 24h; for ME_48h: 48h; for ME_72h: 72h; for t50%_Cmax / tlag_Cmax / t50pct_Cmax: at Cmax; for ME_24h (%): maximum effect at 24 h; for ME_24h (%) / ME_48h (%) / ME_72h (%): RoK assay; for ME_48h (%): maximum effect at 48 h; for ME_72h (%): maximum effect at 72 h; for ME 24h (maximum effect at 24 hours, intracellular amastigotes): maximum percentage of parasite burden reduction reached by any concentration. The procedure, abridged: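 H9c2 cardiomyocytes infected with T. cruzi trypomastigotes (MOI 8, 18 h), then compounds tested at 5 μM single shot or 11-point 1/3 dilution from 50 μM. DRAQ5-stained nuclei imaged over a time course. Amastigotes per cell normalised to infected cells at 4 h (0%) and non-infected cells (100%).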

`O=C(NCC1CCCCC1)c1cc(=O)c2ccccc2o1` [TCMDC-123621]: the “t50%_Cmax” value turned out to be 72.0 h, the “tlag_Cmax” value is 4.0 h, the “ME_24h (%)” value was found to be 36.8% and the “ME_48h (%)” value was 33.2%. Further, the “ME_72h (%)” value came out at 64.5% and the “ME 24h (maximum effect at 24 hours, intracellular amastigotes)” value (from here on “ME 24h”) is 36.8077%. For the setting “figure 5”, this compound came in with an ME_24h of 36.8077, an ME_48h of 33.2383, an ME_72h of 64.4668 and a t50pct_Cmax of 72. Under “figure 5”, this compound registered a tlag_Cmax of 4 and an MCCE of 0.6173. Also, under “RoK curve descriptor”, the “MCC50” value was 5.6 µM and the “MCCE” value is listed as 0.6 µM. In addition, the “AM/CELL NORM” value (Time 4, figure 4 A) was -5.701. The “AM/CELL NORM” value (Time 24, figure 4 A) was determined as 30.3317. Also, the “AM/CELL NORM” value (Time 48, figure 4 A) came out at 33.2183. Moreover, the “AM/CELL NORM” value (Time 72, figure 4 A) is listed as 64.4668. Where the note is “at MCC50”, the “t50%_MCC50” value turned out to be 72.0 h and the “tlag_MCC50” value stood at 4.0 h. For the same compound, for the setting “at MCC50, figure 5”, the t50pct_MCC50 is 72 and the tlag_MCC50 amounted to 4. The compound also returned an MCC50 (figure 5, in µM) of 5.556.
As for `Cl.O=c1cc(NCCCNC2CCOc3c(I)cc(Cl)cc32)[nH]c2ccccc12` (stereo not drawn) [TCMDC-139489], the “ME (maximum effect) in RoK assay (in words)” value was “high ME at 24 hours and 72 hours”; the “tlag (in words)” value was “short tlag times”; the “t50%_Cmax” value is 48.0 h; the “tlag_Cmax” value came out at 4.0 h. Moreover, the “ME_24h (%)” value is reported as 37.7%; the “ME_48h (%)” value is on record as 64.7%; the “ME_72h (%)” value is given as 58.9%; the “ME 24h” value is given as 37.6706%. For the setting “figure 5”, the ME_24h amounted to 37.6706, the ME_48h is 64.7005, the ME_72h came to 58.8587 and the t50pct_Cmax was found to be 48. For the setting “figure 5”, the tlag_Cmax was 4 and the MCCE is recorded as 0.2058. For the setting “RoK curve descriptor”, the “MCC50” value worked out at 5.6 µM and the “MCCE” value was determined as 0.2 µM. Further, the “AM/CELL NORM” value (Time 4, figure 4 A) is 5.191. For the same compound, the “AM/CELL NORM” value (Time 24, figure 4 A) was 37.6706. In addition, the “AM/CELL NORM” value (Time 48, figure 4 A) is recorded as 64.7005. Further, under “Time 72, figure 4 A”, the “AM/CELL NORM” value was 58.8587. Also, for the setting “at MCC50”, the “t50%_MCC50” value was determined as 72.0 h and the “tlag_MCC50” value is 4.0 h. For the setting “at MCC50, figure 5”, this compound yielded a t50pct_MCC50 of 72 and a tlag_MCC50 of 4. This compound also yielded an MCC50 (figure 5, in µM) of 5.556.
In the case of `Cc1cccc(N2CCCN(Cc3c[nH]c4ccccc34)CC2)n1` [TCMDC-143185], the “t50%_Cmax” value was 48.0 h, the “tlag_Cmax” value turned out to be 4.0 h, the “ME_24h (%)” value was 34.1% and the “ME_48h (%)” value is 65.8%. Moreover, the “ME_72h (%)” value came out at 87.2% and the “ME 24h” value was 84.3328%. For the same compound, where the note is “figure 5”, the ME_24h is given as 34.1143, the ME_48h is on record as 65.81, the ME_72h is given as 87.1854 and the t50pct_Cmax was determined as 48. Under “figure 5”, this compound displayed a tlag_Cmax of 4 and an MCCE of 0.6173. Moreover, under “RoK curve descriptor”, the “MCC50” value amounted to 1.9 µM and the “MCCE” value was 0.6 µM. Moreover, under “Time 4, figure 4 A”, the “AM/CELL NORM” value was -11.6177. Besides, for the setting “Time 24, figure 4 A”, the “AM/CELL NORM” value was 35.9083. The “AM/CELL NORM” value (Time 48, figure 4 A) was found to be 66.1558. In addition, for the setting “Time 72, figure 4 A”, the “AM/CELL NORM” value came to 81.0849. For the setting “at MCC50”, the “t50%_MCC50” value amounted to 48.0 h and the “tlag_MCC50” value is 4.0 h. For the setting “at MCC50, figure 5”, this compound displayed a t50pct_MCC50 of 48 and a tlag_MCC50 of 4. In addition, the MCC50 (figure 5, in µM) came out at 1.852.
Take `O=C(NCCc1cccnc1)c1ccc(-c2ccccc2F)o1` [TCMDC-143190]: the “t50%_Cmax” value stood at 72.0 h, the “tlag_Cmax” value was 24.0 h, the “ME_24h (%)” value is on record as -188.2% and the “ME_48h (%)” value is reported as -99.4%. The “ME_72h (%)” value is listed as 47.7% and the “ME 24h” value is given as -116.413%. For the setting “figure 5”, this compound came in with an ME_24h of -188.225, an ME_48h of -99.3488, an ME_72h of 47.7023 and a t50pct_Cmax of 72. Also, where the note is “figure 5”, the tlag_Cmax came to 24 and the MCCE is 0.2058. For the same compound, under “RoK curve descriptor”, the “MCC50” value was 5.6 µM and the “MCCE” value amounted to 0.2 µM. The “AM/CELL NORM” value (Time 4, sheet figure 4 A) came to 10.7478. Also, where the note is “Time 24, sheet figure 4 A”, the “AM/CELL NORM” value was -116.413. For the setting “Time 48, sheet figure 4 A”, the “AM/CELL NORM” value is on record as -106.707. The “AM/CELL NORM” value (Time 72, sheet figure 4 A) was found to be 59.1013. Moreover, under “at MCC50”, the “t50%_MCC50” value amounted to 72.0 h and the “tlag_MCC50” value is 24.0 h. Under “at MCC50, figure 5”, this compound registered a t50pct_MCC50 of 72 and a tlag_MCC50 of 48. For the same compound, the MCC50 (figure 5, in µM) was determined as 27.7778.
Take `COc1ccc(NS(=O)(=O)c2cc(-c3cc(C)[nH]n3)ccc2C)cc1OC` [TCMDC-143194]: the “tlag_Cmax” value turned out to be 41.3 h, the “ME_24h (%)” value is on record as -114.9%, the “ME_48h (%)” value was -675.7% and the “ME_72h (%)” value is -796.2%. The “ME 24h” value turned out to be 24.095%. Also, where the note is “figure 5”, the ME_24h was -114.917, the ME_48h was -675.674, the ME_72h is reported as -796.23 and the t50pct_Cmax was determined as 72. Moreover, for the setting “figure 5”, the tlag_Cmax was 41.3333 and the MCCE is given as 1.237. Moreover, for the setting “RoK curve descriptor”, the “MCC50” value was determined as 16.7 µM and the “MCCE” value worked out at 1.2 µM. Also, the “AM/CELL NORM” value (Time 4, figure 4 A) turned out to be 17.4808. In addition, under “Time 24, figure 4 A”, the “AM/CELL NORM” value came to 13.7763. For the same compound, for the setting “Time 48, figure 4 A”, the “AM/CELL NORM” value is recorded as 30.9676. Further, the “AM/CELL NORM” value (Time 72, figure 4 A) turned out to be 53.1796. For the same compound, where the note is “at MCC50”, the “t50%_MCC50” value is 72.0 h and the “tlag_MCC50” value amounted to 24.0 h. Under “at MCC50, figure 5”, the t50pct_MCC50 is given as 72 and the tlag_MCC50 is listed as 56. This compound gave an MCC50 (figure 5, in µM) of 38.8889.
In the case of `O=S(=O)(c1cccc(CSc2nnc(-c3ccc4c(c3)OCO4)o2)c1)N1CCOCC1` [TCMDC-143197], the “tlag_Cmax” value is 4.0 h, the “ME_24h (%)” value is -16.5%, the “ME_48h (%)” value stood at 13.4% and the “ME_72h (%)” value turned out to be 33.6%. The “ME 24h” value was -16.5303%. Besides, under “figure 5”, the ME_24h was -16.5303, the ME_48h is on record as 13.4442, the ME_72h came out at 33.635 and the t50pct_Cmax was determined as 72. Further, for the setting “figure 5”, the tlag_Cmax was determined as 4, the MCC50 is 50 µM and the MCCE was found to be 0.06859. Moreover, the “MCCE” value (RoK curve descriptor) is on record as 0.07 µM. Also, under “Time 4, sheet figure 4 A”, the “AM/CELL NORM” value is on record as -18.4264. Moreover, the “AM/CELL NORM” value (Time 24, sheet figure 4 A) is -16.5303. Also, the “AM/CELL NORM” value (Time 48, sheet figure 4 A) is given as -6.567. The “AM/CELL NORM” value (Time 72, sheet figure 4 A) worked out at 29.0194. Under “at MCC50, figure 5”, the t50pct_MCC50 is 72 and the tlag_MCC50 worked out at 72.
Take `CC1CN(S(=O)(=O)c2ccc(NC(=O)c3cc(C4CC4)nc4c3cnn4C(C)C)cc2)CC(C)O1` (stereo not drawn) [TCMDC-143200]: the “tlag_Cmax” value was 4.0 h, the “ME_24h (%)” value is recorded as 2.2%, the “ME_48h (%)” value is given as 1.9% and the “ME_72h (%)” value worked out at 56.9%. For the same compound, the “ME 24h” value came to 2.192%. Where the note is “figure 5”, the ME_24h was 2.192, the ME_48h came to 1.8894, the ME_72h is reported as 56.9286 and the t50pct_Cmax was found to be 72. Under “figure 5”, this compound came in with a tlag_Cmax of 4 and an MCCE of 1.852. For the same compound, for the setting “RoK curve descriptor”, the “MCC50” value is on record as 1.9 µM and the “MCCE” value amounted to 1.9 µM. Moreover, the “AM/CELL NORM” value (Time 4, sheet figure 4 A) is reported as -14.9286. In addition, the “AM/CELL NORM” value (Time 24, sheet figure 4 A) was 2.192. Also, the “AM/CELL NORM” value (Time 48, sheet figure 4 A) was -23.2452. Besides, the “AM/CELL NORM” value (Time 72, sheet figure 4 A) is 15.376. Also, under “at MCC50”, the “t50%_MCC50” value amounted to 72.0 h and the “tlag_MCC50” value stood at 24.0 h. Where the note is “at MCC50, figure 5”, this compound registered a t50pct_MCC50 of 72 and a tlag_MCC50 of 24. For the setting “figure 5, in µM”, this compound came in with an MCC50 of 1.852.
For `O=C(NCCc1cccnc1)c1csc(-c2ccccc2)n1` [TCMDC-143203], the “t50%_Cmax” value was 72.0 h, the “tlag_Cmax” value turned out to be 24.0 h, the “ME_24h (%)” value is on record as -222.4% and the “ME_48h (%)” value is reported as -89.2%. The “ME_72h (%)” value is 54.1% and the “ME 24h” value was -177.566%. For the same compound, under “figure 5”, the ME_24h is reported as -222.428, the ME_48h is recorded as -89.2348, the ME_72h was 54.0545 and the t50pct_Cmax is recorded as 72. Under “figure 5”, this compound came in with a tlag_Cmax of 24 and an MCCE of 0.6173. Where the note is “RoK curve descriptor”, the “MCC50” value is on record as 5.6 µM and the “MCCE” value is listed as 0.6 µM. Further, the “AM/CELL NORM” value (Time 4, sheet figure 4 A) was found to be 2.597. Besides, for the setting “Time 24, sheet figure 4 A”, the “AM/CELL NORM” value is -179.486. Further, the “AM/CELL NORM” value (Time 48, sheet figure 4 A) is recorded as -77.3027. Moreover, the “AM/CELL NORM” value (Time 72, sheet figure 4 A) is given as 80.8727. For the setting “at MCC50”, the “t50%_MCC50” value was found to be 72.0 h and the “tlag_MCC50” value was 24.0 h. Under “at MCC50, figure 5”, this compound gave a t50pct_MCC50 of 72 and a tlag_MCC50 of 48. The MCC50 (figure 5, in µM) was 27.7778.
